# Laboratory results: publication PMC9137037 (Frontiers in Oncology, 2022)
# Where no end group is shown, it is not given here.
# Legend:
# rhPD-L1 = conditions: surface plasmon resonance; cited from earlier work
# Method: (§1) The PD-1 amino acids 92-110 (^92[…]^101[…]^110) chosen for evaluation were selected based on the crystal structure of PD-1:PD-L1. This PD-1 sequence was synthesized as a chimeric construct with a promiscuous T-cell helper epitope derived from the measles virus fusion protein (MVF, amino acids 288-302). The specificity of the selected PD-1 peptide was determined by surface plasmon resonance spectroscopy.
# nivolumab = conditions: surface plasmon resonance; cited from earlier work
# Method: as §1
# beagle dogs = test: Safety observations in immunized beagle dogs; assay type: in vivo, dog
# Method: In brief, the beagle dogs were purchased from Covance Research Products (Cumberland, VA, USA) and were housed in the Ohio State University Veterinarian Facility Institutional Animal Care Facility. The dogs were housed at 19°C−24°C room temperature with approximately 70% humidity, and 12 h light and 12 h dark–light cycle. The dogs’ body weights were at least 7.5 kg when they received the first immunization. […] The dogs received a total of 4 doses, immunization was done at the rear thigh with two sites of injections, the bleed was collected as indicated time points to monitor the antibody titers, and the body weight of each dog was monitored closely (see Figures 3B, C for detail).
# This study was designed to monitor the kinetics of how quickly the antibody levels to MVF-PD-1(92-110) diminished after the dosing was stopped. The recall of an antibody response was also tested after re-challenge. Four beagle dogs were used in this study of MVF-PD-1(92-110) peptide cancer vaccine. Dogs #1, #2, and #3 were treated with MVF-PD-1(92-110) emulsified with nor-MDP and ISA 720 using different doses ( Figure 3A ). Dog#1 was treated with 1.0 mg low-dose peptide, dog#2 was treated with 1.5 mg medium-dose peptide, and dog #3 was treated with 3.0 mg high-dose peptide. The negative control dog #10 was only treated with the MVF peptide emulsified with nor-MDP and Montanide ISA720. Dogs were immunized 4 times designated as 1Y, 2Y, 3Y, and 4Y at Day 0, Day 35, Day 56, and 6 months after primary immunization, respectively. Blood was collected every 2 weeks, except for the first collection, which was 3 weeks after the primary immunization and 1 week after 2Y and 3Y immunization ( Figure 3B ). The sera were used to monitor the antibody titers. We monitored the beagle dogs’ body weight closely during the immunization period ( Figure 3C ).
# • a) Beagle dogs were immunized with MVF-PD-1 (92-110) (3 dogs with 1 dog each at the doses of 1, 1.5, and 3 mg/dose). • b) All dogs administered with MVF-PD-1 (92-110) had high polyclonal anti-MVF-PD-1 (92-110) antibody titers. […] These injection site lesions were mostly attributed to the high volume of Montanide ISA 720 VG used in this study.
# [1] = system: CT26 colon carcinoma cells; test: CT26 tumor challenge in immunized syngeneic BALB/c mice; assay type: in vivo, mouse
# Method: The peptide vaccine MVF-PD-1(92-110) was dissolved in sterile water and mixed with either ISA 720 or ISA 51 (1:1) ratio. We utilized the well-established murine colon carcinoma cell line CT26 tumor model in syngeneic BALB/c mice to evaluate the effects of vaccination previously described ([23]). Briefly, 6–8-week-old female BALB/c mice were immunized with the peptide vaccine, and 2 weeks after the third immunization, the mice were challenged with 1×10^5 CT26 colon cancer cells by subcutaneous injection (SC). The CT26 cancer cell line was maintained in the DMEM medium with 10% FBS 5% CO2 at 37 °C. Phosphate-buffered saline (PBS)-treated mice were set as negative control, while the positive control group mice were treated with an anti-mouse PD-1 monoclonal antibody (clone 29F.1A12; Bio X Cell, West Lebanon, NH, USA) with 200 μg/dose per mouse. Blood was collected biweekly after the primary immunization until 2 weeks after the third immunization. Tumor growth was monitored daily, especially 7 days after the tumor challenge. The mice were euthanized at the end of treatment, and the tumors were extracted and weighed.
# The mice in PBS and mAb (29F.1A12) groups, n = 10; group 1 to group 7, n = 8, group 8 n = 7 (one mouse was lost due to a non-immunization related reason before the challenge).
# The mice challenged with CT26 tumor cells were monitored at least twice per week and tumor sizes were measured by calipers. The formula, volume (LWW) = (length × width × width)/2, was used to calculate tumor volumes. All values are shown as means ± standard deviation. Data statistical analysis was performed by GraphPad Prism 8.1.2 (GraphPad Software, Inc. San Diego, CA, USA) and the indicated statistical analysis. The percentage of tumor growth inhibition (%TGI) was defined as the difference between the median tumor volume (MTV) of the treatment group with the PBS control group, and the value was calculated by the following formula: %TGI=100*(MTV control − MTV test)/MTV control. The percentage of complete response (CR) was defined as the tumor volume equal to or less than 50 mm^3 for at least 3 consecutive measurements during the study. The log-rank (Mantel−Cox) test was used to compare the percentage of CR in multiple groups. Student’s t-test was used to analyze the difference between the two groups. One-way analysis of variance (one-way ANOVA) followed by the Tukey’s multiple comparison test were used to compare data in multiple groups or data between groups in multiple groups, and the two-way ANOVA was used to analyze the whole curve comparison. The log-rank (Mantel−Cox) test was use to compare the survival curves. A p-value or an adjusted p-value less than 0.05 was accepted as a statistically significant difference.
# To verify and confirm the previous immunogenicity studies and antitumor activities of PD-1(92-110) ([23]), 6–8-week-old BALB/c mice were vaccinated with MVF-PD-1(92-110) every 2- or 3- week intervals. Peptide cancer vaccine (100 μg) mixed with ISA 720 (1:1) or ISA 51 (1:1) or nor-MDP 33 μg were used per mice. Mice were boosted with the designed doses of vaccine every 2- or 3-week intervals for a total of 3 vaccine shots. Blood was collected weekly for monitoring antibody titers. After 2 weeks of the third immunization (3Y), mice were challenged with CT26 colon carcinoma cells for 1×10^5 cells per mouse. The tumor growths were monitored and checked daily, especially 7 days post-challenge, and the tumor size was measured with calipers ( Figure 1A ). For the positive control group, we treated the mice with an anti-mouse PD-1 antibody (clone 29F.1A12) twice a week for up to three weeks, while the negative control group was treated with PBS. The mice CT26 tumor model study was separated into 10 different groups, post-challenge treated with PBS as the negative control group or an anti-mouse PD-1 antibody (clone 29F.1A12) as positive control group ( Figure 1B ). Group 1 to group 8 comprised the peptide vaccine treatment groups. […]
sequence,measurement,setting,value
KLLSLIKGVIVHRLEGVEGPSLGAISLAPKAQIKESLRAEL [MVF-PD-1(92-110)],recognize and bind rhPD-L1,rhPD-L1,able to recognize and bind
same,recognize and bind nivolumab,nivolumab,able to recognize and bind
same,dogs with adverse local reaction (lesions at or near the IM injection site),"beagle dogs; 1, 1.5 and 3 mg/dose, 1 dog each, lesions resolved within a few weeks after dosing ceased, mostly attributed to high volume of Montanide ISA 720 VG",Two out of three
same,body weight by the end of the experiment compared with the initial weight,beagle dogs; all dogs,gained some weight
same,induction of autoimmune responses,beagle dogs; beagle dogs,has not been observed
same,safety (summary),beagle dogs; dog,safe
same,percentage of complete response (CR),"[1]; CR = tumor volume ≤50 mm^3 for at least 3 consecutive measurements, combined immunized groups vs PBS and mAb 29F.1A12, log-rank",higher percentage of complete response
same,tumor burden vs PBS and vs 29F.1A12 (summary),"[1]; mouse, CT26, Figures 2G, H","PD-1(92) significant less tumor burden vs. PBS, no difference vs. 29F.1A12 ( Figures 2G, H );"
same,2-week vs. 3-week immunization interval (summary),"[1]; mouse, CT26, Figures 2G-I",2-week vs. 3-week no difference ( Figures 2G-I );
same,ISA 720 vs ISA 51 (summary),"[1]; mouse, CT26, Figures 2G-I",ISA 720 vs ISA 51 no difference ( Figures 2G-I );
same,No nor-MDP vs nor-MDP (summary),"[1]; mouse, CT26, Figures 2G-I",No nor-MDP vs nor-MDP no difference ( Figures 2G-I );
same,tumor size (LWW) versus the PBS group,"[1]; two-way ANOVA of whole-curve comparison, p-value less than 0.01, majority of the mice",significantly inhibited
